Experiments:
Format in all cases: cell-based
[1] = test system: A549 cells; assay: MTT proliferation assay, A549; conditions: A549, 10 μM NGI-1 or 1 μM tunicamycin
Procedure: (§1) FIGS. 4A-4H illustrate the finding that NGI-1 blocks RTK driven proliferation. FIG. 4A illustrates western blot analysis of EGFR phosphorylation (Y1173) and gel mobility in PC9 (EGFR-mutant) and A549 (k-ras mutant) NSCLC cells after 10 μM NGI-1 treatment for 24 h. […] Actin expression was used as a control for protein loading. FIG. 4B illustrates MTT assays results of PC9 following treatment with 10 μM NGI-1 or 1 μM tunicamycin for a total of 5 d. Relative proliferation id reported in fold increase from day 0. FIG. 4C illustrates MTT assays results of A549 following treatment with 10 μM NGI-1 or 1 μM tunicamycin for a total of 5 d. Relative proliferation id reported in fold increase from day 0. FIG. 4D illustrates protein phosphorylation profiles of PC9 cells analyzed by phospho-protein array to assess the response of PC9 to 10 μM NGI-1 for 24 h. FIG. 4E illustrates protein phosphorylation profiles of A549 cells analyzed by phospho-protein array to assess the response of A549 to 10 μM NGI-1 for 24 h. […]
(§2) Growth rates were determined by CellTiter 96 NonRadioactive Cell Proliferation Assay (Promega; Madison, Wis. USA) according to the manufacturer's directions. […] Cell numbers were estimated after 0, 3, and 5 days by adding MTT [(3-(4,5-Dimethylthiazol-2-yl)-2,5-diphenyltetrazolium bromide] reagent to the wells 4 hours before taking the spectrophotometric reading (absorbance at 570 nm).

[2] = test system: H1581 cells; assay: MTT proliferation assay, H1581; conditions: H1581, 10 μM NGI-1, 5 d
Procedure: as §1, §2

[3] = test system: lipid linked oligosaccharides (LLOs); assay: FACE analysis of lipid linked oligosaccharides; conditions: p<0.01
Procedure: Fluorophore assisted carbohydrate electrophoresis (FACE) was performed as previously described (Gao, et al., Glycobiology 2002, 12, 353-360; Gao, et al., J Biol Chem 2005, 280, 17901-17909). Control (Ac-Gln-Tyr-Thr-CONH2) and acceptor (Ac-Asn-Tyr-Thr-CONH2) peptides were used for permeabilized cell experiments. Metabolic labeling of Hela cells, transfection of prosaposin (pSAP) and steroid hormone binding globulin (SHBG) vectors, and knockdown of SIT3A and STT3B to monitor N-linked glycosylation knockdown were performed as described (Shrimal, et al., J Cell Biol 2013, 201, 81-95). Western blot analysis was performed as previously described (Bennett, et al., Transl Oncol 2013, 6, 382-391). The following primary antibodies were used: rabbit anti-EGFR (sc-03; Santa Cruz Biotechnology; 1:1000), rabbit anti-phospho (Tyr1173) EGF Receptor (Cell Signaling; 1:1000), rabbit anti-p21 Waf1/Cip1 (12D1; Cell Signaling; 1:1000), rabbit anti-Cyclin D1 (Cell Signaling; 1:1000), mouse anti-β-Actin (8H10D10; Cell Signaling; 1:1000). For phospho-protein array analysis, PC9 and A549 cells were cultured in 6-well plates in serum-containing medium and treated with or without 10 μM NGI-1 for 24 hours. […]

**Q.** What does the source list for `Cc1cnc(NC(=O)c2cc(S(=O)(=O)N(C)C)ccc2N2CCCC2)s1` [NGI-1, 5-(N,N-Dimethylsulfamoyl)-N-(5-methylthiazol-2-yl)-2-(pyrrolidin-1-yl)benzamide]?
**A.** effect on proliferation, MTT [1]: continued to proliferate; effect on proliferation, MTT [2]: blocked proliferation of the H1581 cell line; increase of Glc3Man9Glcnac2 LLO levels [3]: 31%
